Assay results from patent US20250367167A1, “COMPOSITION FOR MITOCHONDRIAL MODIFICATION COMPRISING A COMBINATION OF TWO OR MORE NATURAL PIGMENTS” (University of Seoul Industry Cooperation Foundation, priority 2024, published 2025).
“And” between values parts separate entries of the source, which are not always exact repeats. Equal values may be shown once.

Key:
[1] = Absorption spectrum analysis of natural pigments (UV/Vis); type: physicochemical; details: 100 μM β-carotene, 60 μM anthocyanins, 40 μM chlorophyll a
Description: In order to analyze the absorbance spectra of three natural pigments (i.e., β-carotene, delphinidin chloride (anthocyanin), and chlorophyll a (Sigma-Aldrich)), the absorbance analysis was performed using a UV/Vis NANO spectrophotometer (Nabi).
In the drawing, “Experimental result” corresponds to the actually-measured absorption spectrum, and “Calculated result” represents the result of added-up values of the absorption spectrum of single natural pigments.
The results of the absorption spectrum analysis over time by mixing 100 µM B-carotene, 60 μM anthocyanin, and 40 μM chlorophyll a in various combinations are shown in FIG. 2E to 2H.

[2] = test system: mitochondrial electron transport chain protein complexes; experiment: ATP production after treatment with inhibitors of electron transport chain protein complexes; type: biochemical, human; details: 2 μM inhibitor, 1 hour; C@mt; light 640-680 nm, 5 mW, 80 minutes
Description: It is generally known that ATP is produced through protein complexes involved in the electron transport process during the oxidative phosphorylation process of mitochondria. Accordingly, an analysis was performed using the ATP Assay Kit (Abcam) to evaluate the amount of ATP production when treating with inhibitors for each protein complex.
A total of 50 μL of mitochondria including each combination of natural pigments (C@mt, BC@mt, AC@mt, or BAC@mt) and 2 μM of inhibitors (Rotenone, Malonate, Antimycin A or Cyanide) for each protein complex were added to the E-tube and incubated at room temperature for 1 hour. Then, the supernatant was removed using a centrifuge (12,000 g, 15 minutes) and resuspended in 50 μL of PBS. 50 μL of mitochondria including a combination of natural pigments treated with inhibitors were added to each 96-well black plate, and irradiated with light having a wavelength of 640-680 nm at an intensity of 5 mW for 80 minutes. […]
Then, the amount of ATP production was measured by measuring the fluorescence intensity (Ex/Em=535/587 nm) using a microplate reader. The amount of ATP production was calculated by subtracting the fluorescence value measured upon irradiation with light for 0 minutes from the fluorescence value measured upon irradiation with light for 80 minutes, and the results are shown in FIGS. 8A and 8B.

Structure (SMILES) | wavelength of high absorbance (absorption spectrum) [1] | ATP production after inhibitor treatment [2]
C=Cc1c(C)c2cc3nc(c4c5[n-]c(cc6nc(cc1[n-]2)C(C)=C6CC)c(C)c5C(=O)[C@@H]4C(=O)OC)[C@@H](CCC(=O)OC/C=C(\C)CCC[C@H](C)CCC[C@H](C)CCCC(C)C)[C@@H]3C.[Mg+2] [chlorophyll a] | 415 nm and 662 nm | 
CC1=C(/C=C/C(C)=C/C=C/C(C)=C/C=C/C=C(C)/C=C/C=C(C)/C=C/C2=C(C)CCCC2(C)C)C(C)(C)CCC1 [β-carotene] | 475 nm | 
Oc1cc(O)c2cc(O)c(-c3cc(O)c(O)c(O)c3)[o+]c2c1 [anthocyanins, delphinidin chloride] | 555 nm | 
O=C(O)CC(=O)O [malonate, Malonate] |  | rapid decrease
